Measurements from PMC5342726, “Identification of small molecule inhibitors of ERCC1-XPF that inhibit DNA repair and potentiate cisplatin efficacy in cancer cells” (Oncotarget, 2016).
Like-named read-outs stand apart in the source and are kept apart here.

Columns and labels:
H460 xenografts = settings: for tumor growth, combination with cisplatin: 16168 20 mg/kg i.p. daily + cisplatin 3 mg/kg i.p. twice a week
H460 cells = experiment: Colony survival assay in H460 cells; assay type: cell-based; settings: for IC50: Homo sapiens, NCI-H460, Fig 4C, compound 4 h, cisplatin fixed at IC50 added after 2 h, read-out: compound titration with cisplatin at the IC50, colony survival; for fold change in cisplatin IC50 in combination: combination with cisplatin; for effect of compound alone on colony survival: compound titrated alone, 4 h
Method: (§1) We used H460, NSCLC cells, to first assess the impact on colony survival by knocking down ERCC1-XPF in these cells. […] Next, to assess if colony survival is affected we titrated cisplatin in these cells using a fixed concentration of Hit 1(50 μM) or Hit 2 (25 and 50 μM). […] Next, we assessed cisplatin potentiation by treating cells at a fixed cisplatin concentration (cisplatin IC50 in H460 cells) with Hit 1 or 2 titration (Figure 4C, filled symbols). H460 cells were treated with compound for a total of 4 hours while cisplatin was added to the media after 2 hours of compound pre-treatment. […] We also titrated Hit 1 or Hit 2 alone in these cells and treated for 4 h. […] We also assessed the effects of Hit 2 in another NSCLC cell line (H1299), which was either ERCC1 wildtype (WT) or knockout (KO) (Figure 4E).
Colony survival assay in a total reaction volume of 2.4 mL in a six-well plate Cells were split and seeded at a density of 300-400 format. Cells were transfected for 48 hours after which cells in a 60 mm plate and incubated overnight. The next complete media was added for 24 hours. Cells were day, the cells were treated with a fixed concentration of the seeded for clones and clones were selected using standard compound (Hit 1 or Hit 2) with cisplatin titration. After methods. ERCC1 KO clones were tested for ERCC1 treatment, fresh complete medium with antibiotics was and XPF expression by Western Blot using the ERCC1 added and the cells were then allowed to form colonies. In antibodies, 8F1, FL-297, and D-10 and the XPF antibody another method, the cells were seeded onto 60mm plates 3F2/3 (Santa Cruz).
Validation of genome editing was performed alone or titrated with a fixed concentration of cisplatin by PCR amplification with Taq polymerase (NEB) of (IC50 for the cell line used). Post treatment, the cells were exon 2 within the genomic DNA using the forward allowed to form colonies. Colonies were fixed with 95% primer: 5’ […]
methanol and stained with 0.2 % crystal violet. Colonies 3’ and the reverse primer: 5’ […]
with ≥50 cells were counted using a light microscope. Cell […] 3’. PCR product was cloned […]
survival was expressed as the ratio of average number of into a linearized pCR4-TOPO vector and transformed colonies in drug treated cells versus control cells x 100. into OneShot TOP10 E. coli using the TOPO-TA Cloning The experiment was done in triplicate for each drug Kit for Sequencing (Thermofisher). Bacterial colonies concentration. We have previously published the methods were selected with ampicillin and plasmid was extracted for ERCC1 and XPF knockdowns, which were used as using standard procedures. Plasmid was sequenced by controls. Briefly, cells were seeded onto six-well plates GeneWiz using an M13R primer. Potential sites of off-target editing in coding sequences were identified during
(density 2.5 × 10^5 cells /well) in antibiotic free media. guide RNA design with the Optimized CRISPR Design Two transfections were done at 24 h interval in each cell Tool. Primers were designed to amplify the exons line to knockdown ERCC1-XPF together according to containing the potential off-target sites and PCR product the manufacturer ’s (Dharmacon’s smartpools) protocol. was sequenced by GeneWiz. A list of specific off-target Addition of lipid reagent (Dharmafect 2, Dharmacon) sites and primers used to assess these off-target effects are […]

H1299 ERCC1 WT cells = experiment: Colony survival assay in H1299 ERCC1 WT cells; assay type: cell-based
Method: as §1
(§2) Colony survival assay in a total reaction volume of 2.4 mL in a six-well plate Cells were split and seeded at a density of 300-400 format. […]
(§3) with ≥50 cells were counted using a light microscope. […]
(§4) survival was expressed as the ratio of average number of into a linearized pCR4-TOPO vector and transformed colonies in drug treated cells versus control cells x 100. into OneShot TOP10 E. coli using the TOPO-TA Cloning The experiment was done in triplicate for each drug Kit for Sequencing (Thermofisher). […]

H1299 ERCC1 KO cells = experiment: Colony survival assay in H1299 ERCC1 KO cells; assay type: cell-based
Method: as §1, §2, §3, §4

APE1 endonuclease = tested on: APE1 endonuclease; parameters: method as in PMID 18042731; settings: cited from earlier work
XPG = target: T1, XPG (Homo sapiens, UniProt P28715); experiment: Secondary screen, fluorescence assay with XPG endonuclease; assay type: biochemical; settings: compound titration in the HTS assay
T1 sequence (P28715 1-1186): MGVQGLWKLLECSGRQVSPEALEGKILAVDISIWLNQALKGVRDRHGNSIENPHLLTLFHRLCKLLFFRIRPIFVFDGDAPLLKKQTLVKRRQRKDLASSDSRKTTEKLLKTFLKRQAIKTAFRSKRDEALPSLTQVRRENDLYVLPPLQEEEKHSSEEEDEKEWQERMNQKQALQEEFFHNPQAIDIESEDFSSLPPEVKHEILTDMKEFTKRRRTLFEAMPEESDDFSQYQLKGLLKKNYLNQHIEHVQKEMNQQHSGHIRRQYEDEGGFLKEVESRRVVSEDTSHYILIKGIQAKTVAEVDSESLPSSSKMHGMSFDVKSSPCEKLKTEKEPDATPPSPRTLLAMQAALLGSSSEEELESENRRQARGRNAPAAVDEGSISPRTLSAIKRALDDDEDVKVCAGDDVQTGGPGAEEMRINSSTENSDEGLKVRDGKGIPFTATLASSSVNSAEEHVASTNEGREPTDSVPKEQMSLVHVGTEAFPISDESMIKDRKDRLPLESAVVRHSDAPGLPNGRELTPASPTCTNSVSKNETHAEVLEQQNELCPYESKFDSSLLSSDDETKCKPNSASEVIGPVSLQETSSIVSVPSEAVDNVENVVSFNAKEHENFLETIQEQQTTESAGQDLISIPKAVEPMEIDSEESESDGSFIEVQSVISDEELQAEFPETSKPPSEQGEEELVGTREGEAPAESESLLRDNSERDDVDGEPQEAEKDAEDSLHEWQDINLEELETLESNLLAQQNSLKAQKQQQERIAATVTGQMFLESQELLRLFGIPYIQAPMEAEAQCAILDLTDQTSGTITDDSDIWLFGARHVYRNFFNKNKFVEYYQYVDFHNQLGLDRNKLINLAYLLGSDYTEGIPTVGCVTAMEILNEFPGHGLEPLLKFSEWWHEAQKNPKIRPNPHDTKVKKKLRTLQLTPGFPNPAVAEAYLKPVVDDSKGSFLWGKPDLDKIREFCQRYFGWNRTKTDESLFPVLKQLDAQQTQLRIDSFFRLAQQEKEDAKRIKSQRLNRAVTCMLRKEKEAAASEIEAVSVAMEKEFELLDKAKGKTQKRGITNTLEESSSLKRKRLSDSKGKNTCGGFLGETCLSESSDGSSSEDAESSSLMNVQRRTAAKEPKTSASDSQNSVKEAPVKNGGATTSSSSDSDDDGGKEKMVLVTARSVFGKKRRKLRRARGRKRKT

| Compound | tumor growth, combination with cisplatin (H460 xenografts) | tumor growth, combination with cisplatin (H460 xenografts; listed as Hit 2) | tumor growth, single agent (H460 xenografts; 16168 20 mg/kg i.p. daily or cisplatin 3 mg/kg i.p. twice a week, 10 days) | IC50 (H460 cells) [µM] | fold change in cisplatin IC50 in combination (H460 cells) | effect of compound alone on colony survival (H460 cells) | potentiation of cisplatin response, ERCC1 WT (H1299 ERCC1 WT cells) | potentiation of cisplatin response, ERCC1 KO (H1299 ERCC1 KO cells) | IC50 (APE1 endonuclease) [µM] | effect on XPG activity (XPG) |
| --- | --- | --- | --- | --- | --- | --- | --- | --- | --- | --- |
| Cc1ccc(S(=O)(=O)Oc2cc(S(=O)(=O)O)cc3cc(S(=O)(=O)O)cc(N)c23)cc1 [NSC16168] | inhibited H460 tumor growth | significant effect on tumor growth compared with cisplatin alone | tumor growth was minimally affected | 4 | ~ 3 fold | no effect on colony survival | potentiated the cisplatin response | no additional cisplatin potentiation | ~7 | no effect |
| Oc1cc(O)c2c(c1)OC(c1ccc(O)c(O)c1)C(O)C2c1c(O)cc(O)c2c1OC(c1ccc(O)c(O)c1)C(O)C2 (centres unmarked) [NSC143099] |  |  |  | 15 | ~ 3 fold | no effect on colony survival |  |  |  | some effect on XPG activity at higher concentrations |
